The values that follow come from patent US11207424B2, “Methods and materials for increasing viral vector infectivity” (Mayo Foundation for Medical Education and Research, priority 2014, dated 2021).

For experiment [1], the system named is HeLa cells. Type of experiment: cell-based. Conditions: for increase in relative luciferase activity: 48 hours p.i.
In experiment [2] the test system is HeLa cells. Kind of experiment: GFP-expressing single-stranded AAV9 or scAAV9 vector transduction of HeLa cells, flow cytometry. The class given is cell-based. Conditions: AAV9 CMV-GFP or scAAV9 CMV-GFP, 20 nM at 8 hours p.i., 48 hours p.i. How it is done:
FIG. 20 contains flow cytometry data plotting the infectivity of GFP-expressing single-stranded AAV9 or self-complementary (sc) AAV9 vectors. HeLa cells were infected by AAV9 CMV-GFP or scAAV9 CMV-GFP vectors, followed by treatment with 20 nM meayamycin B at 8 hours p.i. Flow cytometry analysis was performed to observe GFP-positive cell populations at 48 hours p.i.
To understand the mechanism of U2 snRNP-mediated block of AAV vector transduction, the optimal timing of meayamycin B treatment in relationship to AAV infection was further assessed. Pretreatment with the drug was not needed in order for it to enhance AAV9 infection (FIG. 18). […] To further map the optimal timing of U2 snRNP inhibition for AAV vector transduction, AAV2 and AAV9 vector-infected HeLa cells were treated with 5 nM meayamycin B at various time points and duration, and luciferase activity was assessed at 3 days p.i. […] In contrast, the effects of meayamycin B on AAV vector transduction were impaired when drug was added either 24 or 48 hours p.i. (FIG. 19). Thus, optimal enhancement of AAV vector transduction involved initiation of U2 snRNP inhibition prior to 24 hours post AAV vector infection.

Experiment [3] concerns primary pancreatic islets. Put plainly: AAV8 CMV-GFP transduction of primary mouse pancreatic islets, live imaging. The class given is cell-based, C57B1/6 mice. The settings on record: 2 nM at 3 hours p.i., 48 and 72 hours p.i. How it is done: FIG. 21 contains photographs of murine islet cells exposed to AAV8-GFP vectors along with meayamycin (2 nM). Images of GFP expressing islets were taken at two and three days post infection.
(§1) The ability of meayamycin B to boost AAV transduction in various cell types, relevant to gene therapy applications, was also tested. First, primary pancreatic islets were isolated from 8 week-old C57B1/6 mice, which were then transduced with AAV8 CMV-GFP and treated with 2 nM meayamycin B 3 hours p.i. Cells were monitored by BioStation Live Imaging for three days. […] (FIG. 21). The effects of meayamycin B on primary human pancreatic islets were then tested. Cells were infected with AAV2 or AAV9 CMV-Luc vectors and treated with 0, 2, 5, or 20 nM meayamycin B at 7 hours p.i. When luciferase expression was monitored at 48 hours p.i., a dose-dependent increase in luciferase expression in AAV2 and AAV9 infected cells (up to 44- and 24-fold increases in AAV9 and AAV2 transduction) was observed (FIG. 22). The effects on neonatal rat cardiomyocytes were tested next. Primary cardiomyocytes were infected with AAV2 CMV-Luc, followed by 0, 2, or 10 nM meayamycin B treatments at 3 hours post infection for 3 days. […] (FIG. 23).

Experiment [4] concerns primary human pancreatic islets. Put plainly: AAV2 or AAV9 CMV-Luc transduction of primary human pancreatic islets, luciferase. Type of experiment: cell-based. Conditions: human islets, 0, 2, 5 or 20 nM at 7 hours p.i., 48 hours p.i. How it is done:
FIG. 22 contains graphs plotting relative light units in human islet cells 48 hours post infection with an AAV2 or AAV9 vector and following treatment with the indicate amount of meayamycin at 7 hours post infection. Luciferase expression was analyzed 48 hours p.i.
as §1

Experiment [5] concerns neonatal rat cardiomyocytes. Kind of experiment: AAV2 CMV-Luc or scAAV9 CMV-GFP transduction of neonatal rat cardiomyocytes. Type of experiment: cell-based. How it is done:
FIG. 23 presents a graph plotting the relative luciferase activity and images of GFP-expressing cells in neonatal rat cardiomyocytes. Primary cardiomyocytes were infected with AAV2 CMV-Luc or scAAV9 CMV-GFP vectors and treated with meayamycin B, 3 hours p.i. Luciferase activity was measured 3 days p.i., while GFP expression was monitored at 5 days p.i.
as §1

Experiment [6] has as its system primary porcine hepatocytes. Kind of experiment: AAV2 or AAV9 CMV-Luc transduction of primary porcine hepatocytes, luciferase. Type of experiment: cell-based. The settings on record: porcine hepatocytes, 0, 2 or 20 nM after 8 hours infection, 48 hours p.i. How it is done:
FIG. 24 contains graphs plotting the relative luciferase activity in porcine hepatocytes exposed to AAV2 or AAV9 CMV-Luc vectors. Cells were infected with AAV vectors for 8 hours, virus was then removed, and cells were treated with 0, 2, or 20 nM meayamycin B. Cells were harvested 48 hours p.i. for the luciferase assay.
as §1

The subject of experiment [7] is cancer cell lines and clinically relevant cell types, including pancreatic islets and hepatocytes. Kind of experiment: Summary statement: AAV vector transduction of cancer cell lines and clinically relevant cell types. The class given is cell-based. Conditions: summary over cell types. The source says: Thus, genetic and/or pharmacological inhibition of U2 snRNP can be used to increase AAV vector transduction, which allows for efficient AAV vector gene therapy with reduced vector doses.

[8] abbreviates: HeLa, 5 nM, drug 3 hours p.i., washed 1, 2 or 3 days after, luciferase at 3 days p.i.

Like-named read-outs stand apart in the source and are kept apart here.

As to `CC(/C=C/[C@H]1OC(C)(C)C[C@@]2(CO2)[C@@H]1O)=C\C[C@@H]1O[C@H](C)[C@H](NC(=O)/C=C\[C@H](C)OC(=O)N2CCOCC2)C[C@@H]1C` [meayamycin B], the “increase in relative luciferase activity” value in the experiment on HeLa cells [1] (HeLa cells pre-treated at increasing dose 3 hours before AAV9 vector infection) is “up to 49 fold”. Also, in the experiment on HeLa cells [1] (setting [8]), the “increase in AAV2 vector transduction (luciferase)” value was “up to 380 fold” and the “increase in AAV9 vector transduction (luciferase)” value was no more than 359 fold. Besides, the “increase in relative luciferase activity” value with HeLa cells [1] (HeLa, 20 nM, treated 9 hours post AAV9 vector infection) was 464 fold. The “effects on AAV vector transduction, late drug addition” value in the experiment on HeLa cells [1] (HeLa, AAV2 and AAV9, drug added either 24 or 48 hours p.i.) was “impaired”. For the same compound, in the experiment with HeLa cells [1] (HeLa, AAV2 and AAV9, washout for 48 hours after 3-24 hours of treatment), the “effect of washout on AAV vector transduction enhancement” value is reported as “did not strongly compromise its effects on AAV vector transduction”. Moreover, the “effect on relative luciferase activity” value in the experiment on HeLa cells [1] (HeLa, AAV9, 20 nM, treatment at 33 hours p.i.) was “relatively weak effects”. Further, the “transduction by GFP-expressing vectors (number and fluorescent intensity of GFP-positive cells)” value with HeLa cells [2] is “enhanced the transduction by both single-stranded and self-complementary AAV vectors”. In addition, the “GFP expressing cells in islets vs control islets” value in experiment [3] was “increased numbers of GFP expressing cells”. In addition, in experiment [4], the “increase in AAV2 transduction (luciferase expression)” value is recorded as no more than 24 fold and the “increase in AAV9 transduction (luciferase expression)” value is recorded as “up to 44 fold”. For the same compound, the “vector transduction (luciferase)” value in experiment [5] (AAV2 CMV-Luc, 2 nM at 3 hours post infection for 3 days) was “did not strongly improve vector transduction”. In addition, the “increase in luciferase expression” value in experiment [5] (AAV2 CMV-Luc, 10 nM at 3 hours post infection for 3 days) is on record as 72 fold. In addition, the GFP expression result in experiment [5] (scAAV9 CMV-GFP, 10 nM, 5 days p.i.) is on record as “notable increase in GFP expression”. Besides, in experiment [6], the “increase in AAV2 vector transduction (luciferase)” value is reported as no more than 18 fold and the “increase in AAV9 vector transduction (luciferase)” value is “up to 57 fold”. Further, the “increase in vector transduction” value in experiment [7] was “up to 1000 fold”.
